Assay results: ChEMBL document CHEMBL5331107 (J Med Chem, 2023)

Key:
[1] = test system: Human immunodeficiency virus 1; assay: Antiviral activity against NNRTI-resistant HIV-1 harboring L100I mutant infected in human MT4 cells assessed as protection against virus-induced cytopathic effect incubated for 5 days by MTT assay; format: functional, organism-based; conditions: Human immunodeficiency virus 1, MT4, 120 h
in vitro [2] = conditions: human, MT4 cells
Description: Selectivity index, ratio of CC50 for cytotoxicity against human MT4 cells to EC50 for antiviral activity against NNRTI-resistant HIV-1 harboring L100I mutant infected in human MT4 cells

[3] = test system: Human immunodeficiency virus 1; assay: Antiviral activity against NNRTI-resistant HIV-1 harboring E138K mutant infected in human MT4 cells assessed as protection against virus-induced cytopathic effect incubated for 5 days by MTT assay; format: functional, organism-based; conditions: Human immunodeficiency virus 1, MT4, 120 h
in vitro [4] = conditions: human, MT4 cells; remark: listed apart in the source
Description: Selectivity index, ratio of CC50 for cytotoxicity against human MT4 cells to EC50 for antiviral activity against NNRTI-resistant HIV-1 harboring K103N mutant infected in human MT4 cells

in vitro [5] = conditions: human, MT4 cells; remark: listed apart in the source
Description: Selectivity index, ratio of CC50 for cytotoxicity against human MT4 cells to EC50 for antiviral activity against NNRTI-resistant HIV-1 harboring Y181C mutant infected in human MT4 cells

in vitro [6] = conditions: human, MT4 cells; remark: listed apart in the source
Description: Selectivity index, ratio of CC50 for cytotoxicity against human MT4 cells to EC50 for antiviral activity against NNRTI-resistant HIV-1 harboring E138K mutant infected in human MT4 cells

[7] = test system: Human immunodeficiency virus 1; assay: Antiviral activity against NNRTI-resistant HIV-1 harboring K103N mutant infected in human MT4 cells assessed as protection against virus-induced cytopathic effect incubated for 5 days by MTT assay; format: functional, organism-based; conditions: Human immunodeficiency virus 1, MT4, 120 h
[8] = test system: Human immunodeficiency virus 1; assay: Antiviral activity against NNRTI-resistant HIV-1 harboring F227L and V106A double mutant infected in human MT4 cells assessed as protection against virus-induced cytopathic effect incubated for 5 days by MTT assay; format: functional, organism-based; conditions: Human immunodeficiency virus 1, MT4, 120 h
[9] = test system: Human immunodeficiency virus 1; format: functional, organism-based; conditions: Human immunodeficiency virus 1, MT4, 120 h
[10] = test system: Human immunodeficiency virus 1; assay: microbe, parasite or virus in culture; conditions: Human immunodeficiency virus 1, IIIB, MT4, 120 h
Description: Antiviral activity against wild type HIV-1 IIIB infected in human MT4 cells assessed as protection against virus-induced cytopathic effect incubated for 5 days by MTT assay

[11] = test system: Human immunodeficiency virus 1; format: functional, organism-based; conditions: Human immunodeficiency virus 1, MT4, 120 h; remark: listed apart in the source
in vitro [12] = conditions: human, MT4 cells; remark: listed apart in the source
Description: Selectivity index, ratio of CC50 for cytotoxicity against human MT4 cells to EC50 for antiviral activity against wildtype HIV-1 IIIB infected in human MT4 cells

[13] = target: Human immunodeficiency virus type 1 reverse transcriptase (Human immunodeficiency virus 1, UniProt Q72547); assay: Inhibition of HIV-1 reverse transcriptase assessed as assessed as reduction of biotin-dUTP incorporation into […] incubated for 1 hrs by ELISA analysis
in vitro [14] = conditions: human, MT4 cells; remark: listed apart in the source
Description: Selectivity index, ratio of CC50 for cytotoxicity against human MT4 cells to EC50 for antiviral activity against NNRTI-resistant HIV-1 harboring F227L and V106A mutant infected in human MT4 cells

[15] = test system: Human immunodeficiency virus 1; format: functional, organism-based; conditions: Human immunodeficiency virus 1, MT4, 120 h; remark: listed apart in the source
in vitro [16] = conditions: human, MT4 cells; remark: listed apart in the source
Description: Selectivity index, ratio of CC50 for cytotoxicity against human MT4 cells to EC50 for antiviral activity against NNRTI-resistant HIV-1 harboring K103N and Y181C mutant infected in human MT4 cells

in vitro [17] = conditions: human, MT4 cells; remark: listed apart in the source
Description: Selectivity index, ratio of CC50 for cytotoxicity against human MT4 cells to EC50 for antiviral activity against NNRTI-resistant HIV-1 harboring Y188L mutant infected in human MT4 cells

[18] = Cytotoxicity against human MT4 cells assessed as reduction in cell viability incubated for 5 days by MTT assay; format: toxicity, cell-based; conditions: time 5 day

SMILES: Cc1cc(C#N)cc(C)c1Oc1nc(Nc2ccc(C#N)cc2)nc2c1CN(Cc1ccc(S(C)(=O)=O)cc1)CC2
- EC50 [1]: 160 nM
- selectivity ratio (in vitro [2]): > 1380
- EC50 [3]: 43.3 nM
- selectivity ratio (in vitro [4]): > 25400
- selectivity ratio (in vitro [5]): > 5360
- selectivity ratio (in vitro [6]): > 5110
- EC50 [7]: 8.72 nM
- EC50 [8]: 234 nM
- EC50 [9]: 36.6 nM
- EC50 [10]: 8.7 nM
- EC50 [11]: 41.3 nM
- selectivity ratio (in vitro [12]): > 25400
- IC50 [13]: 234 nM
- selectivity ratio (in vitro [14]): > 944
- EC50 [15]: 118 nM
- selectivity ratio (in vitro [16]): > 1880
- selectivity ratio (in vitro [17]): > 6050
- CC50 at 120 h [18]: > 221000 nM

SMILES: COc1cccc(C(=O)N2CCc3nc(Nc4ccc(C#N)cc4)nc(Oc4c(C)cc(C#N)cc4C)c3C2)c1
- EC50 [3]: 33.3 nM
- selectivity ratio (in vitro [4]): 597
- selectivity ratio (in vitro [6]): 144
- EC50 [7]: 8.01 nM
- EC50 [10]: 7.32 nM
- selectivity ratio (in vitro [12]): 653
- IC50 [13]: 180 nM
- CC50 at 120 h [18]: 4780 nM

SMILES: COc1ccc(C(=O)N2CCc3nc(Nc4ccc(C#N)cc4)nc(Oc4c(C)cc(C#N)cc4C)c3C2)cc1
- EC50 [3]: 47.5 nM
- selectivity ratio (in vitro [4]): 3390
- selectivity ratio (in vitro [6]): 682
- EC50 [7]: 9.56 nM
- EC50 [10]: 6.76 nM
- selectivity ratio (in vitro [12]): 4800
- IC50 [13]: 211 nM
- CC50 at 120 h [18]: 32400 nM

SMILES: Cc1cc(C#N)cc(C)c1Oc1nc(Nc2ccc(C#N)cc2)nc2c1CN(Cc1ccc(S(N)(=O)=O)cc1)CC2
- EC50 [1]: 72.6 nM
- selectivity ratio (in vitro [2]): > 3040
- EC50 [3]: 39.7 nM
- selectivity ratio (in vitro [4]): > 29200
- selectivity ratio (in vitro [5]): > 6430
- selectivity ratio (in vitro [6]): > 5570
- EC50 [7]: 7.56 nM
- EC50 [8]: 135 nM
- EC50 [9]: 31.8 nM
- EC50 [10]: 6.62 nM
- EC50 [11]: 34.4 nM
- selectivity ratio (in vitro [12]): > 33400
- IC50 [13]: 126 nM
- selectivity ratio (in vitro [14]): > 1640
- EC50 [15]: 89.9 nM
- selectivity ratio (in vitro [16]): > 2460
- selectivity ratio (in vitro [17]): > 6940
- CC50 at 120 h [18]: > 221000 nM

SMILES: Cc1cc(C#N)cc(C)c1Oc1nc(Nc2ccc(C#N)cc2)nc2c1CN(C(=O)c1cccc(C(F)(F)F)c1)CC2
- EC50 [3]: 152 nM
- selectivity ratio (in vitro [4]): > 6090
- selectivity ratio (in vitro [6]): > 1450
- EC50 [7]: 36.1 nM
- EC50 [10]: 27.7 nM
- selectivity ratio (in vitro [12]): > 7930
- IC50 [13]: 313 nM
- CC50 at 120 h [18]: > 220000 nM

SMILES: Cc1cc(C#N)cc(C)c1Oc1nc(Nc2ccc(C#N)cc2)nc2c1CN(Cc1ccccc1)CC2
- EC50 [3]: 103 nM
- selectivity ratio (in vitro [4]): 1890
- selectivity ratio (in vitro [6]): 507
- EC50 [7]: 27.6 nM
- EC50 [10]: 19.1 nM
- selectivity ratio (in vitro [12]): 2740
- IC50 [13]: 225 nM
- CC50 at 120 h [18]: 52100 nM

SMILES: COC(=O)c1ccc(C(=O)N2CCc3nc(Nc4ccc(C#N)cc4)nc(Oc4c(C)cc(C#N)cc4C)c3C2)cc1
- EC50 [3]: 274 nM
- selectivity ratio (in vitro [4]): > 4890
- selectivity ratio (in vitro [6]): > 817
- EC50 [7]: 45.8 nM
- EC50 [10]: 21.1 nM
- selectivity ratio (in vitro [12]): > 10600
- IC50 [13]: 237 nM
- CC50 at 120 h [18]: > 224000 nM

SMILES: Cc1cc(C#N)cc(C)c1Oc1nc(Nc2ccc(C#N)cc2)nc2c1CN(C(=O)c1cccc(F)c1)CC2
- EC50 [3]: 33 nM
- selectivity ratio (in vitro [4]): 529
- selectivity ratio (in vitro [6]): 152
- EC50 [7]: 9.5 nM
- EC50 [10]: 9.12 nM
- selectivity ratio (in vitro [12]): 551
- IC50 [13]: 207 nM
- CC50 at 120 h [18]: 5020 nM

SMILES: Cc1cc(C#N)cc(C)c1Oc1nc(Nc2ccc(C#N)cc2)nc2c1CN(C(=O)c1cccc(C#N)c1)CC2
- EC50 [3]: 40 nM
- selectivity ratio (in vitro [4]): > 22800
- selectivity ratio (in vitro [6]): > 5950
- EC50 [7]: 10.4 nM
- EC50 [10]: 7.77 nM
- selectivity ratio (in vitro [12]): > 30600
- IC50 [13]: 161 nM
- CC50 at 120 h [18]: > 238000 nM

SMILES: Cc1cc(C#N)cc(C)c1Oc1nc(Nc2ccc(C#N)cc2)nc2c1CN(C(=O)c1ccc(F)cc1)CC2
- EC50 [3]: 24.1 nM
- selectivity ratio (in vitro [4]): 726
- selectivity ratio (in vitro [6]): 270
- EC50 [7]: 8.97 nM
- EC50 [10]: 8.84 nM
- selectivity ratio (in vitro [12]): 736
- IC50 [13]: 154 nM
- CC50 at 120 h [18]: 6510 nM

SMILES: Cc1cc(C#N)cc(C)c1Oc1nc(Nc2ccc(C#N)cc2)nc2c1CN(S(=O)(=O)N(C)C)CC2
- EC50 [3]: 30.5 nM
- selectivity ratio (in vitro [4]): 7670
- selectivity ratio (in vitro [6]): 2060
- EC50 [7]: 8.19 nM
- EC50 [10]: 7.94 nM
- selectivity ratio (in vitro [12]): 7910
- IC50 [13]: 84 nM
- CC50 at 120 h [18]: 62800 nM

SMILES: Cc1cc(C#N)cc(C)c1Oc1nc(Nc2ccc(C#N)cc2)nc2c1CN(C(=O)c1ccc(C(F)(F)F)cc1)CC2
- EC50 [3]: 132 nM
- selectivity ratio (in vitro [4]): > 5000
- selectivity ratio (in vitro [6]): > 1670
- EC50 [7]: 44 nM
- EC50 [10]: 28.8 nM
- selectivity ratio (in vitro [12]): > 7640
- IC50 [13]: 297 nM
- CC50 at 120 h [18]: > 220000 nM

SMILES: Cc1cc(C#N)cc(C)c1Oc1nc(Nc2ccc(C#N)cc2)nc2c1CN(Cc1ccc(B(O)O)cc1)CC2
- EC50 [3]: 55.7 nM
- selectivity ratio (in vitro [4]): 758
- selectivity ratio (in vitro [6]): 211
- EC50 [7]: 15.5 nM
- EC50 [10]: 14.9 nM
- selectivity ratio (in vitro [12]): 787
- IC50 [13]: 180 nM
- CC50 at 120 h [18]: 11800 nM

SMILES: Cc1cc(C#N)cc(C)c1Oc1nc(Nc2ccc(C#N)cc2)nc2c1CNCC2
- EC50 [1]: 33.2 nM
- selectivity ratio (in vitro [2]): 595
- EC50 [3]: 5.61 nM
- selectivity ratio (in vitro [4]): 6380
- selectivity ratio (in vitro [5]): 435
- selectivity ratio (in vitro [6]): 3520
- EC50 [7]: 3.09 nM
- EC50 [8]: 136 nM
- EC50 [9]: 19.5 nM
- EC50 [10]: 1.89 nM
- EC50 [11]: 45.4 nM
- selectivity ratio (in vitro [12]): 10400
- IC50 [13]: 57 nM
- selectivity ratio (in vitro [14]): 145
- EC50 [15]: 383 nM
- selectivity ratio (in vitro [16]): 51
- selectivity ratio (in vitro [17]): 1010
- CC50 at 120 h [18]: 19700 nM

SMILES: Cc1cc(C#N)cc(C)c1Oc1nc(Nc2ccc(C#N)cc2)nc2c1CN(C(=O)c1cccc([N+](=O)[O-])c1)CC2
- EC50 [3]: 43 nM
- selectivity ratio (in vitro [4]): > 32100
- selectivity ratio (in vitro [6]): > 5330
- EC50 [7]: 7.15 nM
- EC50 [10]: 8 nM
- selectivity ratio (in vitro [12]): > 28600
- IC50 [13]: 169 nM
- CC50 at 120 h [18]: > 229000 nM

SMILES: Cc1cc(C#N)cc(C)c1Oc1nc(Nc2ccc(C#N)cc2)nc2c1CN(C(=O)c1ccc(C#N)cc1)CC2
- EC50 [3]: 46.8 nM
- selectivity ratio (in vitro [4]): > 14700
- selectivity ratio (in vitro [6]): > 5090
- EC50 [7]: 16.2 nM
- EC50 [10]: 10.3 nM
- selectivity ratio (in vitro [12]): > 23000
- IC50 [13]: 154 nM
- CC50 at 120 h [18]: > 238000 nM

SMILES: O=C1Nc2ccc(Cl)cc2[C@@](C#CC2CC2)(C(F)(F)F)O1 [EFAVIRENZ]
- EC50 [1]: 753 nM
- EC50 [3]: 6.82 nM
- EC50 [7]: 133 nM
- EC50 [9]: 425 nM
- EC50 [11]: 7.87 nM
- EC50 [15]: 433 nM
- CC50 at 120 h [18]: > 6350 nM

SMILES: Cc1ccnc2c1NC(=O)c1cccnc1N2C1CC1 [NEVIRAPINE]
- EC50 [1]: 2290 nM
- EC50 [3]: 205 nM
- EC50 [7]: 7790 nM
- EC50 [8]: > 15000 nM
- EC50 [9]: > 15000 nM
- EC50 [10]: 155 nM
- EC50 [11]: 8950 nM
- EC50 [15]: > 15000 nM
- CC50 at 120 h [18]: > 15000 nM
